Earlier results on two molecules are cited in US20120195875A1, “DETECTION OF IMMUNE MODULATION RESULTING FROM REDUCED PROTEIN PHOSPHATASE 2A ACTIVITY” (CEDARS-SINAI MEDICAL CENTER, priority 2011, published 2012).

The test system of data set [1] is murine peritoneal macrophages.

As for `COC[C@@H]([C@H](O)[C@H](O)C(=O)NCC[C@H](C)c1nc(/C=C/C[C@@H]2O[C@]3(C[C@@H](O)[C@@H]2C)O[C@H]([C@H](C[C@H](O)[C@H](C)[C@H](O)[C@H](C)/C=C(C)/C(C)=C/C=C/C(C)=C\C#N)OC)[C@H](OP(=O)(O)O)C3(C)C)co1)N(C)C` [calyculin A], in the data set with macrophages, the “LPS-induced TNF-α, IL-1β, IFN-β, IP-10, IRF-1, and TNFR-2 release” value is listed as “inhibit”; the LPS-induced macrophage responses entry was “inhibits”.

In the case of `C=C1[C@@H](O)[C@@H]2O[C@]3(CC[C@H](/C=C/[C@@H](C)[C@@H]4CC(C)=C[C@@]5(O[C@H](C[C@@](C)(O)C(=O)O)CC[C@H]5O)O4)O3)CC[C@H]2O[C@@H]1[C@@H](O)C[C@H](C)[C@H]1O[C@@]2(CCCCO2)CC[C@H]1C` [okadaic acid], the LPS tolerance entry in data set [1] (1 h before the first or 16 h before the second LPS stimulation) is recorded as “reversed LPS tolerance”. For the same molecule, the p38 phosphorylation entry in data set [1] (in response to primary LPS stimulation) was “inhibition”. Besides, the “phosphorylation of ERK-1/ERK-2, JNK/SAPK and p38/SAPK-2” value in data set [1] (in response to second LPS stimulation) was “restored and prolonged”.
